This note sets out measurements from patent US7122335B1, “Compounds and methods to enhance rAAV transduction” (priority 1999, dated 2006).

Several values for one entry are separate records, joined by “and”; a condition that tells them apart may be missing. Equal values may be shown once. Peptide text beside a SMILES is read from it. * marks the point of attachment. Cbz = O=C(OCc1ccccc1)*

For the experiment, the system named is mouse lung. Nature of the experiment: rAAV (AV.LacZ) gene transfer in mouse lung in vivo. Also noted: species or system BALB/c mice. The procedure:
FIGS. 17A–F. Persistent induction of rAAV mediated gene transfer in mouse conducting airways by proteasome inhibitors. FIGS. 17A–C) Recombinant AV.Alkphos (5×10^10 particles) was administered to mouse lung either as virus alone in PBS or virus in combination with 40 μM LLnL in PBS. Virus was directly instilled into […] mice trachea with a 30 G needle in a total volume of 30 μl. To insure the spread of the virus in mouse lung, 50 μl air was pumped into lung through the same syringe immediately after virus was administered. Ninety days after infection, lungs were harvested intact and fixed in 4% paraformaldehyde followed by cryosection. AAV-mediated transgene expression was evaluated by 10 μm tissue sections staining for heat-resistant alkaline phosphatase. FIG. 17A: infection with AAV alone; FIGS. 17B and 17C: infection with AAV supplemented with 40 µM of LLnL. FIGS. 17D–F) 6 week old BALB/c mouse (N=3 animals in each group) were infected with 5×10^10 DNA particles of AV.LacZ in the absence or presence of 400 μM Z-LLL by nasal instillation. Representative examples of histochemical staining for LacZ expression in large bronchioles 150 days post-infection are shown in FIGS. 17D and 17E. The right and left sides of each panel represent Nomarski and bright field photomicrographs, respectively. The 100 μm scale bar applies to all photomicrographs. The mean (+/−SEM) percentage of LacZ expressing epithelial cells at various levels of the airway was quantitated using the morphometric procedures outlined in the methods, and the analysis represents results from three independent animals for each group (FIG. 17F).
In vivo studies in mice. Animal studies were performed in accordance with the institutional guidelines of the University of Iowa To determine the effect of the proteasome inhibitor on AAV mediated gene transfer in mouse lung, 6 week-old BALB/c mice were lightly anesthetized using a methoxyflurane chamber. AV.LacZ (5×10^10 particles) was administered alone or with 400 μM Z-LLL in a 10 μl instillation by nasal aspiration as described by Walters et al. (2000). To prevent unforeseen toxicity of DMSO solvent, the proteasome inhibitor Z-LLL was dissolved in ethanol as a 40 mM stock solution and was included in the viral inoculum at 1% final concentration. Viral infection controls in the absence of Z-LLL also contained a 1% final concentration of ethanol. […] The trachea was intubated and instilled at 10 cm of water pressure with the following solutions in order: PBS, 0.5% glutaraldehyde, 1 mM MgCl2/PBS, and finally X-gal staining reagent for an overnight incubation at room temperature. The X-gal stained mouse lungs were then post fixed in 10% neutral buffered formalin for 48 hours at room temperature and cryopreserved in serial 10%, 20% and 30% sucrose/PBS solutions. Lungs (N=3 for each condition) were embedded in OCT (optimal cutting temperature; Baxter, Warrendale, Pa.) and 15 μm serially sections were analyzed for gene transfer by calculating the percentage of positive cells in the airway epithelium. The diameter of the airway was recorded for classification (>360 μm, 260–350 μm, 160–250 μm, <150 μm) of results following morphometric analysis. Greater than 150 airway cross-sections were quantified for each experimental condition.

Turning to `CC(C)C[C@@H](C=O)NC(=O)[C@H](CC(C)C)NC(=O)[C@H](CC(C)C)NC(=O)OCc1ccccc1` [Z-LLL, N-carbobenzoxyl-L-leucinyl-L-leucinyl-L-leucinal] (Cbz-Leu-Leu-Leu-aldehyde), the “airway cells transduced by AV.LacZ, average” value (400 μM Z-LLL intranasal with 5×10^10 particles, 150 days) is recorded as “about 5.88%”. Besides, under “400 μM Z-LLL, 150 days”, the “airway cells in the smaller bronchioles (<150 mm) expressing β-galactosidase” value came to 1.37±0.41% and the “transduction of lung, in words” value is “significant transduction was achieved”. The “transduction efficiency in larger bronchioles (>350 mm), mean % of airway epithelium” value (400 μM Z-LLL, 150 days post-infection) was 10.36±1.63% and 10.36+/−1.63%. Moreover, the “transgene expression (X-gal staining) in lung” value (3 and 10 days post infection) is on record as “no detectable transgene expression”.
